Consider eleven compounds from publication PMC10223992, “In Silico-Motivated Discovery of Novel Potent Glycogen Synthase-3 Inhibitors: 1-(Alkyl/arylamino)-3H-naphtho[1,2,3-de]quinoline-2,7-dione Identified as a Scaffold for Kinase Inhibitor Development” (Pharmaceuticals, 2023).

Structures are written as SMILES. “And” between values parts separate entries of the source, which are not always exact repeats. Equal values may be shown once. A value given as a limit tells only on which side of the number the result lay.

Common to all, as to assay type: biochemical
One assay deals with T1, Homo sapiens GSK-3β (Homo sapiens, UniProt P49841).
T1 construct: purchased MRC Protein Phosphorylation & Ubiquitylation Unit, University of Dundee (screening service)
T1 sequence (P49841 whole entry): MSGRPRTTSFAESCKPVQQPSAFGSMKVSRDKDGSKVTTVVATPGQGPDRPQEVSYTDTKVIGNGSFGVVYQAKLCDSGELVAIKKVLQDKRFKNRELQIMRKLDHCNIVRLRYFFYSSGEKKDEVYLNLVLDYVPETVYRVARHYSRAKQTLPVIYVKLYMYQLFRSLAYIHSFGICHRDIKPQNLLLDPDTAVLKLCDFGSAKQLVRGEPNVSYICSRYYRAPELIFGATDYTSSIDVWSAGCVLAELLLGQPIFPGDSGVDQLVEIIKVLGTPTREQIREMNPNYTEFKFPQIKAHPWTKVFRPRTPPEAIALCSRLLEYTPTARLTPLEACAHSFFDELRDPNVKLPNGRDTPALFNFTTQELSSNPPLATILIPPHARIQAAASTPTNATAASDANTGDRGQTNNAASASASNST
In words: in vitro GSK-3β binding assay (kinase inhibition, MRC PPU Dundee). To be noted: for inhibition at 50 µM: single concentration 50 µM; for IC50: in vitro binding assay, duplicate; for % remaining activity (GSK-3β): single-dose profiling 50 μM. The method, then: (§1) All predicted inhibitors for testing (except compound 3) were purchased from Vitas-M Laboratory, with purity ≥ 90%. Compound 3 was purchased from Biosynth Carbosynth with purity of 95%. Binding assay experiments against Homo sapiens GSK-3β were performed using a specialist service from the MRC Protein Phosphorylation & Ubiquitylation Unit at the University of Dundee (http://www.kinase-screen.mrc.ac.uk/ (accessed on 1 April 2023)). Initial assays underwent single concentration screening at 50 µM concentrations to determine those compounds showing the best inhibitory potential. Inhibitory activities were calculated based on maximal activities measured in the absence of an inhibitor. […] In the kinase selectivity panel screening for 14 and 19, the compounds were assayed at single concentration (50 μM) against CDK2, CDK5, CDK9, ERK1, ERK2, PKA, PKBβ, PKCα, PKCγ, GSK-3α, and GSK-3β. All binding assay experiments were performed in duplicate.

The target in another assay is PKBβ (Homo sapiens, UniProt P31751). As to the kind of experiment: kinase selectivity screening, PKBβ. The method, then: as §1
Sequence of PKBβ (P31751 whole entry, species assumed): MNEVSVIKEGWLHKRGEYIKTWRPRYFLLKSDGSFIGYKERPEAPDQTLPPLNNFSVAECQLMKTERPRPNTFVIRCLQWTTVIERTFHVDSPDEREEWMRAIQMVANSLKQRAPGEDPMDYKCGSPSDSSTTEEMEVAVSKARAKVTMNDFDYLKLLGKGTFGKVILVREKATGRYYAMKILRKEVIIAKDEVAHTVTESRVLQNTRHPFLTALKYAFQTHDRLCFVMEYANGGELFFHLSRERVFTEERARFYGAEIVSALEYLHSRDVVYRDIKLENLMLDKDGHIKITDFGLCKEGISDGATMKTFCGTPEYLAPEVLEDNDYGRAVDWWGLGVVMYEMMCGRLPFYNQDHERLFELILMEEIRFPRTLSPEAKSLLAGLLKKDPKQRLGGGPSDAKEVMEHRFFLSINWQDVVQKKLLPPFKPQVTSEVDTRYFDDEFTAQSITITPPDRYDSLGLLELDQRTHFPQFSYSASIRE
A further assay concerns the target GSK-3α (Homo sapiens, UniProt P49840). As to the kind of experiment: kinase selectivity screening, GSK-3α. The settings on record: for % remaining activity (GSK-3α): single-dose profiling 50 μM. The method, then: as §1
The target in another assay is PKCγ (Homo sapiens, UniProt P05129). As to the kind of experiment: kinase selectivity screening, PKCγ. The method, then: as §1
A further assay addresses ERK2 (Homo sapiens, UniProt P28482). As to the kind of experiment: kinase selectivity screening, ERK2. The method, then: as §1

Sequence of GSK-3α (P49840 whole entry, species assumed): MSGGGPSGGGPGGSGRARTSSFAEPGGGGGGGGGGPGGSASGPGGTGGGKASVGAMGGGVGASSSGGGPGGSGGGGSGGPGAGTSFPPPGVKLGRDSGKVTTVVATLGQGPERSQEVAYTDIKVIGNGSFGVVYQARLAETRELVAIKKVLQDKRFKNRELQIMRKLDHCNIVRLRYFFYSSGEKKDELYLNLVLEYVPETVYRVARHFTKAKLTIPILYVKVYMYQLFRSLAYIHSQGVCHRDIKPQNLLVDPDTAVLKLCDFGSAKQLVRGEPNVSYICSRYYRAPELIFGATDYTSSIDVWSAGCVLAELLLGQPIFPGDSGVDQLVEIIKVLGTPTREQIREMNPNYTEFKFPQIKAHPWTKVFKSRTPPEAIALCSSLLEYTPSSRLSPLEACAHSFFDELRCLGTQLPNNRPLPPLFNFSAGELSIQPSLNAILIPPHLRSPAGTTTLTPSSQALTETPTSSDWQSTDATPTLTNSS
Sequence of ERK2 (P28482 whole entry, species assumed): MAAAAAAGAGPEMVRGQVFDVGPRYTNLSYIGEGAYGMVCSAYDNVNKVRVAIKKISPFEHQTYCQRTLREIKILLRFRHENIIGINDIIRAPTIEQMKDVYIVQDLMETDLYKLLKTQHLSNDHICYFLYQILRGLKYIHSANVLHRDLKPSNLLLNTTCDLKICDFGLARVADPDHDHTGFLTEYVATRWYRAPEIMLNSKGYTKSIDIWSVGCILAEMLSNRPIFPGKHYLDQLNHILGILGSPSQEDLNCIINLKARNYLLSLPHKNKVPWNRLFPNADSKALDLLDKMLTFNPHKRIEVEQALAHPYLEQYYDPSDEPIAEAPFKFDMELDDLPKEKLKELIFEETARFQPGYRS

By inhibition is commonly meant the share of the control response that was lost under treatment. Low values mean a response near the control, high ones a response far below the control. Compound `Cc1ccc2c(c1)[C@]1(N[C@@H]([C@@H](C)O)[C@H]3C(=O)N(Cc4ccc5c(c4)OCO5)C(=O)[C@H]31)C(=O)N2` [Compound 10, (3S,3′R,3a′S,6a′R)-5′-(benzo[d][1,3]dioxol-5-ylmethyl)-3′-((R)-1-hydroxyethyl)-5-methyl-2′,3′,3a′,6a′-tetrahydro-4′H-spiro[indoline-3,1′-pyrrolo[3,4-c]pyrrole]-2,4′,6′(5′H)-trione] displayed an inhibition at 50 µM at Homo sapiens GSK-3β of 6%.

Broadly, the IC50 is the concentration at which inhibition is half-maximal. The low end stands for inhibition by little substance, the high end for a need for much substance. `Cn1c(=O)c(NCCO)c2c3c(cccc31)C(=O)c1ccccc1-2` [Compound 21]: the IC50 on Homo sapiens GSK-3β was found to be 17 ± 2.7 µM.

On to `Cc1ccc(Nc2c3c4c(cccc4[nH]c2=O)C(=O)c2ccccc2-3)cc1` [Compound 13], for which the IC50 at Homo sapiens GSK-3β was < 10 µM and 9.4 µM.

Regarding `CCCCNc1c2c3c(cccc3[nH]c1=O)C(=O)c1ccccc1-2` [Compound 19], the IC50 at Homo sapiens GSK-3β was < 10 µM and 4.9 µM; at PKBβ, 24.6 ± 0.2 µM; at GSK-3α it was 1700 ± 100 nM; against PKCγ, 11 ± 1.5 µM. For the same compound, on Homo sapiens GSK-3β, the “% remaining activity (GSK-3β)” value was under 50%. For the same compound, the “% remaining activity (GSK-3α)” value on GSK-3α is listed as under 50%.

Regarding `COc1ccc(Cn2cnc3c([nH]c4ccccc43)c2=O)cc1OC` [Compound 9, 3-(3,4-dimethoxybenzyl)-3,5-dihydro-4H-pyrimido[5,4-b]indol-4-one], testing at 50 µM at Homo sapiens GSK-3β gave an inhibition of 9%.

`Nc1c2c3c(cccc3[nH]c1=O)C(=O)c1ccccc1-2` [Compound 22] returned an IC50 on Homo sapiens GSK-3β of 36.7 ± 5.7 µM.

As for `COc1cccc2c1cc1c3c(cc4c(c32)OCO4)C(=O)N1` [Compound 3, 8-methoxy-[1,3]dioxolo[4′,5′:4,5]benzo[1,2,3-cd]benzo[f]indol-5(6H)-one], at Homo sapiens GSK-3β, the IC50 was determined as 63.7 ± 3.3 µM.

`O=C1Nc2ccccc2C(=O)N2c3ccccc3C[C@@H]12` [Compound 5, (S)-12a,13-dihydro-6H-benzo[5,6][1,4]diazepino[1,2-a]indole-6,12(11H)-dione] showed an inhibition at 50 µM at Homo sapiens GSK-3β of 20%.

Consider `Cc1cc(C)cc(Nc2c3c4c(cccc4[nH]c2=O)C(=O)c2ccccc2-3)c1` [Compound 14], for which the IC50 was < 10 µM and 9.1 µM on Homo sapiens GSK-3β; 21.3 µM against ERK2; 14.9 ± 1.5 µM at PKBβ; 2300 ± 400 nM on GSK-3α. The “% remaining activity (GSK-3β)” value on Homo sapiens GSK-3β is listed as under 50%. The “% remaining activity (GSK-3α)” value at GSK-3α is under 50%.

In turn, `O=C1N/C(=C/c2ccccc2)C(=O)N2Cc3ccccc3C[C@@H]12` [Compound 8, (S,E)-3-benzylidene-2,3,11,11a-tetrahydro-4H-pyrazino[1,2-b]isoquinoline-1,4(6H)-dione] yielded an inhibition at 50 µM on Homo sapiens GSK-3β of 10%.

For `COc1cc2c(cc1OC)[C@@H](c1c(O)[nH]c(=O)n(-c3ccc(C)c(C)c3)c1=O)NCC2` [Compound 11, (S)-5-(6,7-dimethoxy-1,2,3,4-tetrahydroisoquinolin-1-yl)-3-(3,4-dimethylphenyl)-6-hydroxypyrimidine-2,4(1H,3H)-dione], at Homo sapiens GSK-3β, testing at 50 µM gave an inhibition of 2%.
